Data from patent US20090111697A1, “PROPIONIC ACID AS AN HERBICIDE” (Marrone Organic Innovations, priority 2007, published 2009).

Experiments:
[1] = system: Lactuca sativa (lettuce) seed; assay: Germination of lettuce seeds in 96-well plate, dilution series; assay type: in vivo; details: 11 days; for germination: 75 ul per well
Method: The phytotoxic effects of propionic and formic acids were tested on germinating dicot seeds. A single seed of Lactuca sativa (lettuce) was placed in each well of a 96-well plate followed by a 75-ul aliquot of each solution in a stepwise (1:2) dilution series with DI water from 5% to 0%. DI water was used as a control. The plate was sealed with a plastic cover, and placed under greenhouse lights (12 hr light/dark cycle) for 11 days after which the germination at each concentration was recorded. See the results below.

[2] = system: Seedlings of Lactuca sativa (lettuce); assay: High-throughput 96-well post-emergence assay on lettuce seedlings; assay type: in vivo
Method: A high-throughput 96-well assay was used to test the efficacy of propionic acid as a post-emergence, non-selective herbicide. Seedlings of Lactuca sativa (lettuce) were grown in water agar in 96-well plates under continuous light. Propionic acid was added on the seedlings at a 2×-dilution series from 20% to 0%, and the minimum concentration needed for killing the seedling was recorded the next day. According to the results, propionic acid at a concentration of 0.156% was able to kill the lettuce seedling, whereas propionic acid at a concentration of 0.08% was not harmful for the plant.

[3] = system: Lactuca sativa (lettuce) seeds; assay: Pre-emergence pot test, propionic acid in corn gluten meal granules, lettuce; assay type: in vivo; details: one week
Method: (§1) To further test the inhibitory effect of propionic acid on germinating seeds, pots with 6-cm diameter were filled with 60 mL of silty clay loam soil passed through a 2-mm sieve, and five (5) seeds of either Lactuca sativa (lettuce, representing a broadleaf plant) or Poa annua (annual bluegrass, representing a grass weed) were planted on the top. A solid form of the composition containing corn gluten meal granules (1-2 mm diameter) soaked in 0%, 10%, 15% or 20% propionic acid solution and dried were placed on the top of the soil at rates 0.1, 0.25, and 0.5 g/pot. The pots were kept at optimum water content under growth lights with a 12-h light/dark period at room temperature, and the number of germinated seeds was counted after one week. The results were reported as a percent of weed seeds germinated relative to the control treatment with no corn gluten meal added.

[4] = system: Poa annua (annual bluegrass) seeds; assay: Pre-emergence pot test, propionic acid in corn gluten meal granules, annual bluegrass; assay type: in vivo; details: one week
Method: as §1

[5] = system: Poa annua (annual bluegrass); assay: Post-emergence spray test on annual bluegrass, 0.5-20%; assay type: in vivo; details: 2 mL spray, four days after treatment
Method: Pots with 6-cm diameter were filled with potting mix, and about thirty (30) seeds of Poa annua (annual bluegrass, representing a grass weed) were planted on the top. The seeds were germinated and the plants grown at optimum water content under growth lights with a 12-h light/dark period at room temperature until they were about 3 inches tall. To test the post-emergence effect of propionic acid, the plants were sprayed with 2 mL of water solutions containing increasing concentrations of propionic acid. The following concentrations (v/v %) were used: 0% (control), 0.5% 2.5%, 5%, 10%, and 20%. the plants were observed four days after the treatment.

[6] = system: Poa annua; assay: Post-emergence minimum concentration study in peat pots, 2-10%; assay type: in vivo; details: Poa annua in small peat pots, sprayed
Text: To further test the minimum concentration of propionic acid required to control Poa annua (as an example of a grass weed) another study was set up in small peat pots using concentrations 0% (control), 2%, 4%, 6%, 8% and 10% of propionic acid. According to the results, a concentration of 8-10% is needed for good control.

[7] = Solubility of hinokitiol in solvents; assay type: physicochemical; details: ambient conditions
Text: The solubility of hinokitiol in proprionic acid was 60% w/w or 3 parts hinokitiol to 2 parts propionic acid by weight, under ambient conditions. Under the correct conditions the solubility of hinokitiol in propionic acid would exceed 3 parts hinokitiol to 2 parts propionic acid, by weight. Under ambient conditions, the maximum solubility of hinokitiol in ethanol is 50% w/w or 1 part hinokitiol to 1 part ethanol by weight.

[8] = granules soaked in 10% propionic acid, 0.1 g/pot
[9] = granules soaked in 10% propionic acid, 0.25 g/pot
[10] = granules soaked in 10% propionic acid, 0.5 g/pot
[11] = granules soaked in 15% propionic acid, 0.1 g/pot
[12] = granules soaked in 15% propionic acid, 0.25 g/pot
[13] = granules soaked in 15% propionic acid, 0.5 g/pot
[14] = granules soaked in 20% propionic acid, 0.1 g/pot
[15] = granules soaked in 20% propionic acid, 0.25 g/pot
[16] = granules soaked in 20% propionic acid, 0.5 g/pot

## CCC(=O)O [Propionic acid]
[1]; 0.005% solution
  germination: +
[1]; 0.01% solution
  germination: +
[1]; 0.02% solution
  germination: + and −
[1]; 0.05% solution
  germination: − and +
[1]; 0.09% solution
  germination: −
[1]; 0.19% solution
  germination: −
[1]; 0.36% solution
  germination: −
[1]; 0.75% solution
  germination: −
[1]; 1.25% solution
  germination: −
[1]; 2.50% solution
  germination: −
[1]; 5.00% solution
  germination: −
[1]; lettuce seed
  threshold value for complete inhibition of seed germination: 0.09%
[2]; concentration of 0.08%, next day
  effect on the seedling: not harmful
[2]; lettuce seedlings, recorded the next day
  minimum concentration needed for killing the seedling: 0.156%
[3]; [8]
  germination rate (%) relative to untreated control: 50%
[3]; [9]
  germination rate (%) relative to untreated control: 75%
[3]; [10]
  germination rate (%) relative to untreated control: 42%
[3]; [11]
  germination rate (%) relative to untreated control: 83%
[3]; [12]
  germination rate (%) relative to untreated control: 25%
[3]; [13]
  germination rate (%) relative to untreated control: 42%
[3]; [14]
  germination rate (%) relative to untreated control: 42%
[3]; [15]
  germination rate (%) relative to untreated control: 67%
[3]; [16]
  germination rate (%) relative to untreated control: 33%
[4]; [8]
  germination rate (%) relative to untreated control: 37%
[4]; [9]
  germination rate (%) relative to untreated control: 44%
[4]; [10]
  germination rate (%) relative to untreated control: 22%
[4]; [11]
  germination rate (%) relative to untreated control: 44%
[4]; [12]
  germination rate (%) relative to untreated control: 52%
[4]; [13]
  germination rate (%) relative to untreated control: 30%
[4]; [14]
  germination rate (%) relative to untreated control: 44%
[4]; [15]
  germination rate (%) relative to untreated control: 37%
[4]; [16]
  germination rate (%) relative to untreated control: 96%
[5]; 0.5% (v/v) in water
  herbicidal effect, visual observations: no herbicidal effect
[5]; 10% (v/v) in water
  herbicidal effect, visual observations: symptoms of wilting, scorching and eventually, death
[5]; 20% (v/v) in water
  herbicidal effect, visual observations: symptoms of wilting, scorching and eventually, death
[6]
  concentration needed for good control: 8-10%

## CC(C)c1cccc(=O)c(O)c1 [hinokitiol]
[7]
  maximum solubility in ethanol: 50 % w/w
  solubility in propionic acid: 60 % w/w

## O=CO [Formic Acid, reference compound]
[1]; 0.005% solution
  germination: +
[1]; 0.01% solution
  germination: + and −
[1]; 0.02% solution
  germination: + and −
[1]; 0.05% solution
  germination: − and +
[1]; 0.09% solution
  germination: −
[1]; 0.19% solution
  germination: −
[1]; 0.36% solution
  germination: −
[1]; 0.75% solution
  germination: −
[1]; 1.25% solution
  germination: −
[1]; 2.50% solution
  germination: −
[1]; 5.00% solution
  germination: −
